Laboratory results as given in the supplement of paper PMC10307832.

Columns and labels:
Experiment in all cases: relative viability (nuclei count vs DMSO), 5 days (fraction); higher = more cells survive
NCI-H838 = tested on: NCI-H838
Outline: (§1)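 Cells from lung cancer lines were seeded into 1536-well plates and, one day later, dosed by pin tool. Treatments were either a single drug or a fixed dose of an anchor drug with five library-drug doses (not always all listed) in √10 steps. After 5 days, nuclei were stained in a one-step fixation (final 0.05% Triton X-100, 1% formaldehyde, 1 ug/ml Hoechst) and counted on 4× images, and relative viability is the treated-to-vehicle nuclei ratio, as the median of duplicate plates.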

LK-2 = tested on: LK-2
Outline: as §1

HCC-366 = tested on: HCC-366
Outline: as §1

NCI-H2342 = tested on: NCI-H2342
Outline: as §1

NCI-H522 = tested on: NCI-H522
Outline: as §1

LXF-289 = tested on: LXF-289
Outline: as §1

HCC-827 = tested on: HCC-827
Outline: as §1

NCI-H1975 = tested on: NCI-H1975
Outline: as §1

PC-14 = tested on: PC-14
Outline: as §1

HOP-62 = tested on: HOP-62
Outline: as §1

NCI-H2085 = tested on: NCI-H2085
Outline: as §1

LU99A = tested on: LU99A
Outline: as §1

HARA = tested on: HARA
Outline: as §1

NCI-H1944 = tested on: NCI-H1944
Outline: as §1

SW 900 = tested on: SW 900
Outline: as §1

HCC-44 = tested on: HCC-44
Outline: as §1

HCC-15 = tested on: HCC-15
Outline: as §1

NCI-H647 = tested on: NCI-H647
Outline: as §1

CAL-12T = tested on: CAL-12T
Outline: as §1

LC-2-ad = tested on: LC-2-ad
Outline: as §1

`C=C1C(=O)O[C@@H](CCCCCCCC)[C@@H]1C(=O)O` [C-75] + NC(=O)Nc1cc(-c2cccc(F)c2)sc1C(=O)N[C@H]1CCCNC1 [AZD7762] (partner 0.2 µM) was tested, and the relative viability (NCI-H838; first compound 0.08 µM) was 0.89, the relative viability (NCI-H838; first compound 0.253 µM) was 0.752 and the relative viability (NCI-H838; first compound 0.8 µM) was 0.943. The relative viability (NCI-H838; first compound 2.53 µM) was 0.865, the relative viability (NCI-H838; first compound 8 µM) was 0.891 and the relative viability (LK-2; first compound 0.08 µM) was 0.355. The relative viability (LK-2; first compound 0.253 µM) was 0.699, the relative viability (LK-2; first compound 0.8 µM) was 0.299 and the relative viability (LK-2; first compound 2.53 µM) was 0.289. It also gave a relative viability (LK-2; first compound 8 µM) of 0.255, a relative viability (HCC-366; first compound 0.08 µM) of 0.271 and a relative viability (HCC-366; first compound 0.253 µM) of 0.306. The relative viability (HCC-366; first compound 0.8 µM) was 0.227, the relative viability (HCC-366; first compound 2.53 µM) was 0.152 and the relative viability (HCC-366; first compound 8 µM) was 0.52. The relative viability (NCI-H2342; first compound 0.08 µM) was 0.569, the relative viability (NCI-H2342; first compound 0.253 µM) was 0.562 and the relative viability (NCI-H2342; first compound 0.8 µM) was 0.45. The relative viability (NCI-H2342; first compound 2.53 µM) was 0.458, the relative viability (NCI-H2342; first compound 8 µM) was 0.505 and the relative viability (NCI-H522; first compound 0.08 µM) was 0.851. It also gave a relative viability (NCI-H522; first compound 0.253 µM) of 0.717, a relative viability (NCI-H522; first compound 0.8 µM) of 0.846 and a relative viability (NCI-H522; first compound 2.53 µM) of 0.855. For the same compound, the relative viability (NCI-H522; first compound 8 µM) was 0.727, the relative viability (LXF-289; first compound 0.08 µM) was 1.07 and the relative viability (LXF-289; first compound 0.253 µM) was 1.21. The relative viability (LXF-289; first compound 0.8 µM) was 1.02, the relative viability (LXF-289; first compound 2.53 µM) was 1.07 and the relative viability (LXF-289; first compound 8 µM) was 1.21. The relative viability (HCC-827; first compound 0.253 µM) was 0.245, the relative viability (HCC-827; first compound 0.8 µM) was 0.201 and the relative viability (HCC-827; first compound 8 µM) was 0.355. It also gave a relative viability (NCI-H1975; first compound 0.08 µM) of 0.771, a relative viability (NCI-H1975; first compound 0.253 µM) of 0.556 and a relative viability (NCI-H1975; first compound 0.8 µM) of 0.623. For the same compound, the relative viability (NCI-H1975; first compound 2.53 µM) was 0.667, the relative viability (NCI-H1975; first compound 8 µM) was 0.78 and the relative viability (PC-14; first compound 0.08 µM) was 0.358. It also gave a relative viability (PC-14; first compound 0.8 µM) of 0.243, a relative viability (PC-14; first compound 2.53 µM) of 0.328 and a relative viability (PC-14; first compound 8 µM) of 0.319. It also gave a relative viability (HOP-62; first compound 0.08 µM) of 0.592, a relative viability (HOP-62; first compound 0.253 µM) of 1.09 and a relative viability (HOP-62; first compound 0.8 µM) of 0.522. The relative viability (HOP-62; first compound 2.53 µM) was 0.657, the relative viability (HOP-62; first compound 8 µM) was 0.91 and the relative viability (NCI-H2085; first compound 0.08 µM) was 0.95. For the same compound, the relative viability (NCI-H2085; first compound 0.253 µM) was 1.09, the relative viability (NCI-H2085; first compound 0.8 µM) was 0.919 and the relative viability (NCI-H2085; first compound 2.53 µM) was 0.943. For the same compound, the relative viability (NCI-H2085; first compound 8 µM) was 1, the relative viability (LU99A; first compound 0.08 µM) was 0.36 and the relative viability (LU99A; first compound 0.253 µM) was 0.529. The relative viability (LU99A; first compound 0.8 µM) was 0.33, the relative viability (LU99A; first compound 2.53 µM) was 0.284 and the relative viability (LU99A; first compound 8 µM) was 0.401. For the same compound, the relative viability (HARA; first compound 0.08 µM) was 0.568, the relative viability (HARA; first compound 0.253 µM) was 0.469 and the relative viability (HARA; first compound 0.8 µM) was 0.213. For the same compound, the relative viability (HARA; first compound 2.53 µM) was 0.447, the relative viability (HARA; first compound 8 µM) was 0.722 and the relative viability (NCI-H1944; first compound 0.08 µM) was 0.566. For the same compound, the relative viability (NCI-H1944; first compound 0.253 µM) was 0.648, the relative viability (NCI-H1944; first compound 0.8 µM) was 0.381 and the relative viability (NCI-H1944; first compound 2.53 µM) was 0.621. For the same compound, the relative viability (NCI-H1944; first compound 8 µM) was 0.517, the relative viability (SW 900; first compound 0.08 µM) was 0.663 and the relative viability (SW 900; first compound 0.253 µM) was 0.69. It also gave a relative viability (SW 900; first compound 0.8 µM) of 0.623, a relative viability (SW 900; first compound 2.53 µM) of 0.576 and a relative viability (SW 900; first compound 8 µM) of 0.611. For the same compound, the relative viability (HCC-44; first compound 0.08 µM) was 1.03, the relative viability (HCC-44; first compound 0.253 µM) was 1.05 and the relative viability (HCC-44; first compound 0.8 µM) was 0.999. The relative viability (HCC-44; first compound 2.53 µM) was 0.953, the relative viability (HCC-44; first compound 8 µM) was 1.08 and the relative viability (HCC-15; first compound 0.08 µM) was 1.37. The relative viability (HCC-15; first compound 0.253 µM) was 1.39, the relative viability (HCC-15; first compound 0.8 µM) was 1.2 and the relative viability (HCC-15; first compound 2.53 µM) was 0.78. For the same compound, the relative viability (HCC-15; first compound 8 µM) was 1.22, the relative viability (NCI-H647; first compound 0.08 µM) was 0.412 and the relative viability (NCI-H647; first compound 0.253 µM) was 0.405. For the same compound, the relative viability (NCI-H647; first compound 0.8 µM) was 0.329, the relative viability (NCI-H647; first compound 2.53 µM) was 0.444 and the relative viability (NCI-H647; first compound 8 µM) was 0.373. For the same compound, the relative viability (CAL-12T; first compound 0.08 µM) was 0.683, the relative viability (CAL-12T; first compound 0.253 µM) was 0.713 and the relative viability (CAL-12T; first compound 0.8 µM) was 0.586. For the same compound, the relative viability (CAL-12T; first compound 2.53 µM) was 0.548, the relative viability (CAL-12T; first compound 8 µM) was 0.64 and the relative viability (LC-2-ad; first compound 0.08 µM) was 0.833. The relative viability (LC-2-ad; first compound 0.253 µM) was 0.813, the relative viability (LC-2-ad; first compound 0.8 µM) was 0.819 and the relative viability (LC-2-ad; first compound 2.53 µM) was 0.728. For the same compound, the relative viability (LC-2-ad; first compound 8 µM) was 0.853.
